Data taken from patent US20250215012A1, “IKZF2 DEGRADERS AND USES THEREOF” (REGENTS OF THE UNIVERSITY OF MICHIGAN, priority 2022, published 2025).

Molecular target: IKZF2 (Homo sapiens (Human), UniProt Q96SW2+Q9UKS7)
Experiment: IKZF2 HiBiT Assay (Jurkat-IKZF2-HiBiT cell line)
Format: cell-based
Conditions: Jurkat-IKZF2-HiBiT cells, 24 hours; for DC50: read-out: HiBit assay degradation analysis DC50; for Dmax: read-out: HiBit assay degradation analysis Dmax
Outline: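 Jurkat cells carrying HiBiT-tagged IKZF2 were exposed to serially diluted compound for 24 h at 37 °C. Remaining IKZF2 was measured by Nano-Glo HiBiT lytic luminescence after 10-20 min at room temperature. Signal was normalized to DMSO, and IC50 came from a four-parameter variable-slope fit.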

Chain of IKZF2 (Q9UKS7 whole entry): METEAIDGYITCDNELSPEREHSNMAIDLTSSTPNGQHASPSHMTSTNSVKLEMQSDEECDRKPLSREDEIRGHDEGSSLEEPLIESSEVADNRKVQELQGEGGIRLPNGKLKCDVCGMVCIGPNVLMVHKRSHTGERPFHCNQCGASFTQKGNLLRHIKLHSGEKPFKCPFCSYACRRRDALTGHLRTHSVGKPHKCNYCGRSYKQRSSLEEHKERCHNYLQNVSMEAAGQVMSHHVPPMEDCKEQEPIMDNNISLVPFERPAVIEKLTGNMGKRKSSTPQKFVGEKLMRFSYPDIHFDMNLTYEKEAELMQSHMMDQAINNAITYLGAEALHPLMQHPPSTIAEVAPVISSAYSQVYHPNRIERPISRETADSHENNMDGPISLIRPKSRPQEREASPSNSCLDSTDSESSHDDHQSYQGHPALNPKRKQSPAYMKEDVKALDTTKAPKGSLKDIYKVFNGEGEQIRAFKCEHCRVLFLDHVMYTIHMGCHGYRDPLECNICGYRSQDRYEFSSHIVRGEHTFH
Chain of IKZF2 (Q96SW2 whole entry): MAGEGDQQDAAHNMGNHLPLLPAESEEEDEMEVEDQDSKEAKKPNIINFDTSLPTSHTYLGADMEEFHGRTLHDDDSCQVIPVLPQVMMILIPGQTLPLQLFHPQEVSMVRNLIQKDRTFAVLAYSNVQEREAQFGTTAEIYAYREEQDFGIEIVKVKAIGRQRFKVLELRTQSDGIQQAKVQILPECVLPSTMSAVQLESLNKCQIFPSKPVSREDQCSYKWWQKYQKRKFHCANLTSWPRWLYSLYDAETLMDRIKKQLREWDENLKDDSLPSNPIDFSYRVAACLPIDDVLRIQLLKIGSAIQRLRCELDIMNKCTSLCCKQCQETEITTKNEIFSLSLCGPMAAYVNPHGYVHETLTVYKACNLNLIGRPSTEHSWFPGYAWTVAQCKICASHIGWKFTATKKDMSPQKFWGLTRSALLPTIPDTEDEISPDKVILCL
Chain of IKZF2 (Q16531 whole entry partner): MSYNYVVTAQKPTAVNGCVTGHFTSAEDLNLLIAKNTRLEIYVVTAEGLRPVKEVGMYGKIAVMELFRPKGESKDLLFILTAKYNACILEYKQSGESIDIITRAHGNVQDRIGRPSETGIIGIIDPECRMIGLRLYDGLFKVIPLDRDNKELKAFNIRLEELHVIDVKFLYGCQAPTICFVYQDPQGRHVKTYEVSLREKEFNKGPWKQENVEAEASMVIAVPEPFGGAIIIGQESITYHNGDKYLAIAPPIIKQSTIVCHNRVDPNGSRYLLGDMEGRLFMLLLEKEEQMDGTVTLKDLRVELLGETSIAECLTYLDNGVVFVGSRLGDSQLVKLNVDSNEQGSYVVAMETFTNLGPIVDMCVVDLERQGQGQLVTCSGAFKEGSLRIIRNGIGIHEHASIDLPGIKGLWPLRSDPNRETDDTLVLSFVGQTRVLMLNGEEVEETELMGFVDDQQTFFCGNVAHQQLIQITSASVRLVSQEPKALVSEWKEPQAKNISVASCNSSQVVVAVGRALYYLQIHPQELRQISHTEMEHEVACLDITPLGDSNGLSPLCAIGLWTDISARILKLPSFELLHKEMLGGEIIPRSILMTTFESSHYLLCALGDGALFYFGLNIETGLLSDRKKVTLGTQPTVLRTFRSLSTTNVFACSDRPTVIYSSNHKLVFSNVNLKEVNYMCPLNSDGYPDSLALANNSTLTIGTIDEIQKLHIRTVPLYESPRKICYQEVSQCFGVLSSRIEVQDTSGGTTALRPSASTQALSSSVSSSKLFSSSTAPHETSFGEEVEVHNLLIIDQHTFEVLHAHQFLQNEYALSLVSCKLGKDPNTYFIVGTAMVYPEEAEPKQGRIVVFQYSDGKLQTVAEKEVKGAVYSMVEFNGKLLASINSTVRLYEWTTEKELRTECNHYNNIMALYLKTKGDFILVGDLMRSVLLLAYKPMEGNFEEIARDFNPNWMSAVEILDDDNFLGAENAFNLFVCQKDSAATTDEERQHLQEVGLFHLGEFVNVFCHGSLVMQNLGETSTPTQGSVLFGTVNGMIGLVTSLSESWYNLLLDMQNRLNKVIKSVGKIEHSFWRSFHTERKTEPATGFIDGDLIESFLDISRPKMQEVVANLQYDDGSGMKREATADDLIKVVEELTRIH

With `O=C1CCC(N2Cc3c(ccc4c3OCC43CCN(Cc4cnn(C5CCCCC5)c4)CC3)C2=O)C(=O)N1` (stereo not shown) [Compound A220, 3-(1′-((1-cyclohexyl-1H-pyrazol-4-yl)methyl)-6-oxo-6,8-dihydro-2H,7H-spiro[furo[2,3-e]isoindole-3,4′-piperidin]-7-yl)piperidine-2,6-dione] the DC50 was > 500 nM and the Dmax was < 40%.

For `CN(C)C(=O)c1ccc(CN2CCC3(CC2)COc2c3ccc3c2CN(C2CCC(=O)NC2=O)C3=O)cc1` (stereo not shown) [Compound A201, 4-((7-(2,6-dioxopiperidin-3-yl)-6-oxo-7,8-dihydro-2H,6H-spiro[furo[2,3-e]isoindole-3,4′-piperidin]-1′-yl)methyl)-N,N-dimethylbenzamide], the DC50 was > 500 nM and the Dmax was < 40%.

With `O=C1CCC(N2Cc3c(ccc4c3OCC43CCN(Cc4ccc5[nH]cnc5c4)CC3)C2=O)C(=O)N1` (stereo not shown) [Compound A70, 3-(1′-((1H-benzo[d]imidazol-5-yl)methyl)-6-oxo-6,8-dihydro-2H,7H-spiro[furo[2,3-e]isoindole-3,4′-piperidin]-7-yl)piperidine-2,6-dione] the DC50 was 200 to 500 nM and the Dmax was 60 to 80%.

`O=C1CCC(N2Cc3c(ccc4c3OCC43CCN(Cc4cccnc4Cl)CC3)C2=O)C(=O)N1` (stereo not shown) [Compound A249, 3-(1′-((2-chloropyridin-3-yl)methyl)-6-oxo-6,8-dihydro-2H,7H-spiro[furo[2,3-e]isoindole-3,4′-piperidin]-7-yl)piperidine-2,6-dione] was tested, and the DC50 was > 500 nM and the Dmax was < 40%.

Work on `O=C1CCC(N2Cc3c(ccc4c3OCC43CCN(Cc4cnn5c4CCCC5)CC3)C2=O)C(=O)N1` (stereo not shown) [Compound A245, 3-(6-oxo-1′-((4,5,6,7-tetrahydropyrazolo[1,5-a]pyridin-3-yl)methyl)-6,8-dihydro-2H,7H-spiro[furo[2,3-e]isoindole-3,4′-piperidin]-7-yl)piperidine-2,6-dione] yielded a DC50 of 200 to 500 nM and a Dmax of 40 to 60%.

`COCCn1ncc2c(CN3CCC4(CC3)COc3c4ccc4c3CN(C3CCC(=O)NC3=O)C4=O)cccc21` (stereo not shown) [Compound A343, 3-(1′-((1-(2-methoxyethyl)-1H-indazol-4-yl)methyl)-6-oxo-6,8-dihydro-2H,7H-spiro[furo[2,3-e]isoindole-3,4′-piperidin]-7-yl)piperidine-2,6-dione] was tested, and the DC50 was > 500 nM and the Dmax was 40 to 60%.

`[2H]C([2H])([2H])n1ncc2ccc(CN3CCC4(CC3)COc3c4ccc4c3CN([C@H]3CCC(=O)NC3=O)C4=O)cc21` [Compound A300, (S)-3-(1′-((1-(methyl-d3)-1H-indazol-6-yl)methyl)-6-oxo-6,8-dihydro-2H,7H-spiro[furo[2,3-e]isoindole-3,4′-piperidin]-7-yl)piperidine-2,6-dione] was tested, and the DC50 was < 50 nM and the Dmax was 60 to 80%.

In the case of `O=C1CC[C@H](N2Cc3c(ccc4c3OCC43CCN(Cc4cccc(-c5cnn(C6CC6)c5)c4)CC3)C2=O)C(=O)N1` [Compound A268, (S)-3-(1′-(3-(1-cyclopropyl-1H-pyrazol-4-yl)benzyl)-6-oxo-6,8-dihydro-2H,7H-spiro[furo[2,3-e]isoindole-3,4′-piperidin]-7-yl)piperidine-2,6-dione], the DC50 was < 50 nM and the Dmax was 60 to 80%.

With `CC(F)(F)c1ccc(CN2CCC3(CC2)COc2c3ccc3c2CN(C2CCC(=O)NC2=O)C3=O)cc1` (stereo not shown) [Compound A30, 3-(1′-(4-(1,1-difluoroethyl)benzyl)-6-oxo-6,8-dihydro-2H,7H-spiro[furo[2,3-e]isoindole-3,4′-piperidin]-7-yl)piperidine-2,6-dione] the DC50 was > 500 nM and the Dmax was < 40%.

With `Cc1ccc2[nH]ncc2c1CN1CCC2(CC1)COc1c2ccc2c1CN(C1CCC(=O)NC1=O)C2=O` (stereo not shown) [Compound A143, 3-(1′-((5-methyl-1H-indazol-4-yl)methyl)-6-oxo-6,8-dihydro-2H,7H-spiro[furo[2,3-e]isoindole-3,4′-piperidin]-7-yl)piperidine-2,6-dione] the DC50 was < 50 nM and the Dmax was 60 to 80%.

`CC1(C)CCC(CN2CCC3(CC2)COc2c3ccc3c2CN(C2CCC(=O)NC2=O)C3=O)CC1` (stereo not shown) [Compound A19, 3-(1′-((4,4-dimethylcyclohexyl)methyl)-6-oxo-6,8-dihydro-2H,7H-spiro[furo[2,3-e]isoindole-3,4′-piperidin]-7-yl)piperidine-2,6-dione] was tested, and the DC50 was > 500 nM and the Dmax was < 40%.

For `O=C1CCC(N2Cc3c(ccc4c3OCC43CCN(Cc4nccc5c4CCCC5)CC3)C2=O)C(=O)N1` (stereo not shown) [Compound A324, 3-(6-oxo-1′-((5,6,7,8-tetrahydroisoquinolin-1-yl)methyl)-6,8-dihydro-2H,7H-spiro[furo [2,3-e]isoindole-3,4′-piperidin]-7-yl)piperidine-2,6-dione], the DC50 was > 500 nM and the Dmax was 40 to 60%.

In the case of `Cn1ncc(-c2cccc(CN3CCC4(CC3)COc3c4ccc4c3CN([C@H]3CCC(=O)NC3=O)C4=O)c2)n1` [Compound A296, (S)-3-(1′-(3-(2-methyl-2H-1,2,3-triazol-4-yl)benzyl)-6-oxo-6,8-dihydro-2H,7H-spiro[furo[2,3-e]isoindole-3,4′-piperidin]-7-yl)piperidine-2,6-dione], the DC50 was < 50 nM and the Dmax was 60 to 80%.

In the case of `Cn1cc2cc(CN3CCC4(CC3)COc3c4ccc4c3CN(C3CCC(=O)NC3=O)C4=O)ccc2n1` (stereo not shown) [Compound A68, 3-(1′-((2-methyl-2H-indazol-5-yl)methyl)-6-oxo-6,8-dihydro-2H,7H-spiro[furo[2,3-e]isoindole-3,4′-piperidin]-7-yl)piperidine-2,6-dione], the DC50 was > 500 nM and the Dmax was 40 to 60%.

Compound `CCOc1cccc(CN2CCC3(CC2)COc2c3ccc3c2CN(C2CCC(=O)NC2=O)C3=O)c1` (stereo not shown) [Compound A92, 3-(1′-(3-ethoxybenzyl)-6-oxo-6,8-dihydro-2H,7H-spiro[furo[2,3-e]isoindole-3,4′-piperidin]-7-yl)piperidine-2,6-dione] has a DC50 of 50 to 200 nM and a Dmax of 40 to 60%.

For `CN(C(=O)c1cccc(CN2CCC3(CC2)COc2c3ccc3c2CN(C2CCC(=O)NC2=O)C3=O)c1)c1cccc(F)c1` (stereo not shown) [Compound A166, 3-((7-(2,6-dioxopiperidin-3-yl)-6-oxo-7,8-dihydro-2H,6H-spiro[furo[2,3-e]isoindole-3,4′-piperidin]-1′-yl)methyl)-N-(3-fluorophenyl)-N-methylbenzamide], the DC50 was 50 to 200 nM and the Dmax was 40 to 60%.

For `O=C1CCC(N2Cc3c(ccc4c3OCC43CCN(Cc4cccc5c4CCCC5)CC3)C2=O)C(=O)N1` (stereo not shown) [Compound A208, 3-(6-oxo-1′-((5,6,7,8-tetrahydronaphthalen-1-yl)methyl)-6,8-dihydro-2H,7H-spiro[furo[2,3-e]isoindole-3,4′-piperidin]-7-yl)piperidine-2,6-dione], the DC50 was < 50 nM and the Dmax was 60 to 80%.

With `O=C1CCC(N2Cc3c(ccc4c3OCC43CCN(Cc4cccc(-n5cccn5)c4)CC3)C2=O)C(=O)N1` (stereo not shown) [Compound A107, 3-(1′-(3-(1H-pyrazol-1-yl)benzyl)-6-oxo-6,8-dihydro-2H,7H-spiro[furo[2,3-e]isoindole-3,4′-piperidin]-7-yl)piperidine-2,6-dione] the DC50 was < 50 nM and the Dmax was 60 to 80%.

`O=C1CCC(N2Cc3c(ccc4c3OCC43CCN(Cc4cccc(-c5cnn(C6CC6)c5)c4)CC3)C2=O)C(=O)N1` (stereo not shown) [Compound A174, 3-(1′-(3-(1-cyclopropyl-1H-pyrazol-4-yl)benzyl)-6-oxo-6,8-dihydro-2H,7H-spiro[furo[2,3-e]isoindole-3,4′-piperidin]-7-yl)piperidine-2,6-dione] was tested, and the DC50 was < 50 nM and the Dmax was 60 to 80%.

`CCn1ncc2ccc(CN3CCC4(CC3)COc3c4ccc4c3CN([C@H]3CCC(=O)NC3=O)C4=O)cc21` [Compound A298, (S)-3-(1′-((1-ethyl-1H-indazol-6-yl)methyl)-6-oxo-6,8-dihydro-2H,7H-spiro[furo[2,3-e]isoindole-3,4′-piperidin]-7-yl)piperidine-2,6-dione] was tested, and the DC50 was 50 to 200 nM and the Dmax was 60 to 80%.

In the case of `O=C1CCC(N2Cc3c(ccc4c3OCC43CCN(Cc4ncsc4-c4ccccc4)CC3)C2=O)C(=O)N1` (stereo not shown) [Compound A158, 3-(6-oxo-1′-((5-phenylthiazol-4-yl)methyl)-6,8-dihydro-2H,7H-spiro[furo[2,3-e]isoindole-3,4′-piperidin]-7-yl)piperidine-2,6-dione], the DC50 was > 500 nM and the Dmax was < 40%.

For `O=C1CCC(N2Cc3c(ccc4c3OCC43CCN(CC4(c5ccccc5)CCC4)CC3)C2=O)C(=O)N1` (stereo not shown) [Compound A334, 3-(6-oxo-1′-((1-phenylcyclobutyl)methyl)-6,8-dihydro-2H,7H-spiro[furo[2,3-e]isoindole-3,4′-piperidin]-7-yl)piperidine-2,6-dione], the DC50 was > 500 nM and the Dmax was 40 to 60%.

For `Cc1cccc(CN2CCC3(CC2)COc2c3ccc3c2CN(C2CCC(=O)NC2=O)C3=O)c1` (stereo not shown) [Compound A213, 3-(1′-(3-methylbenzyl)-6-oxo-6,8-dihydro-2H,7H-spiro[furo[2,3-e]isoindole-3,4′-piperidin]-7-yl)piperidine-2,6-dione], the DC50 was < 50 nM and the Dmax was 60 to 80%.

`O=C1CCC(N2Cc3c(ccc4c3OCC43CCN(Cc4ccc5scnc5c4)CC3)C2=O)C(=O)N1` (stereo not shown) [Compound A54, 3-(1′-(benzo[d]thiazol-5-ylmethyl)-6-oxo-6,8-dihydro-2H,7H-spiro[furo[2,3-e]isoindole-3,4′-piperidin]-7-yl)piperidine-2,6-dione] was tested, and the DC50 was 50 to 200 nM and the Dmax was 40 to 60%.

`O=C1CCC(N2Cc3c(ccc4c3OCC43CCN(Cc4nncn4-c4ccccc4)CC3)C2=O)C(=O)N1` (stereo not shown) [Compound A253, 3-(6-oxo-1′-((4-phenyl-4H-1,2,4-triazol-3-yl)methyl)-6,8-dihydro-2H,7H-spiro[furo[2,3-e]isoindole-3,4′-piperidin]-7-yl)piperidine-2,6-dione] was tested, and the DC50 was > 500 nM and the Dmax was < 40%.

`O=C1CCC(N2Cc3c(ccc4c3OCC43CCN(Cc4n[nH]c5ccccc45)CC3)C2=O)C(=O)N1` (stereo not shown) [Compound A227, 3-(1′-((1H-indazol-3-yl)methyl)-6-oxo-6,8-dihydro-2H,7H-spiro[furo[2,3-e]isoindole-3,4′-piperidin]-7-yl)piperidine-2,6-dione] was tested, and the DC50 was > 500 nM and the Dmax was 40 to 60%.
